pIC50: −log10 of the molar value. Like-named read-outs stand apart in the source and are kept apart here.
Target: EBI2 (Homo sapiens, UniProt P32249)
Experiment: Cell-based luminescent assay (EBI2 modulation)
How it was run: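 Cells plated overnight at 37° C, then exposed to compound at 4-5 uM final with 80 nM 7a,25-OHC agonist for 60 min at 37° C. Luminescence read after 60 min detection at 25° C in the dark; values normalized to neutral and stimulator controls and plate-pattern corrected.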

[1] = cell-based luminescence, 7a,25-OHC final assay concentration 80 nM, 60 minutes incubation, read-out: IC50

EBI2, sequence (P32249 whole entry): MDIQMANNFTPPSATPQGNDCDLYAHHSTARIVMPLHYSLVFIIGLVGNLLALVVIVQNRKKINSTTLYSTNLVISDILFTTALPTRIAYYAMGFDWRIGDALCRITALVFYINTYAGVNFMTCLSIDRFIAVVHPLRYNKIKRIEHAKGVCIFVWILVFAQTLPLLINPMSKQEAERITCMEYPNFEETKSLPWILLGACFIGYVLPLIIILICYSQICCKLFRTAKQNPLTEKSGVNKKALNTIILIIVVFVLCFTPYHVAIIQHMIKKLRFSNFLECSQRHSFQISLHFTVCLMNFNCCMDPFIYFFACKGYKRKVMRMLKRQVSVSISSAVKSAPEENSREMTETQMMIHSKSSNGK

Structure (SMILES)	pIC50 [1]	pIC50
CC(C)c1ccc2[nH]c(C(=O)N3CCN(C(c4ccccc4)c4ccccc4)CC3)cc2c1 [Compound C338, 4-(diphenylmethyl)piperazinyl 5-(methylethyl)indol-2-yl ketone]	> 7.00	–
Cc1ccc2[nH]c(C(=O)N3CCN(Cc4ccc(Cl)cc4)CC3)cc2c1 [Compound C339, 4-[(4-chlorophenyl)methyl]piperazinyl 5-methylindol-2-yl ketone]	> 7.00	–
N#Cc1ccccc1S(=O)(=O)N1CCN(C(=O)/C=C/c2ccc(F)cc2)CC1 [Compound C341, 2-({4-[(2E)-3-(4-fluorophenyl)prop-2-enoyl]piperazinyl}sulfonyl)benzenecarbonitrile]	> 7.00	–
O=C(C#Cc1cc(F)cc(F)c1)N1CCN(C(=O)c2ccc(Cl)cc2)CC1 [Compound C343, 3-(3,5-difluorophenyl)-1-{4-[(4-chlorophenyl)carbonyl]piperazinyl}prop-2-yn-1-one]	> 7.00	–
O=C(/C=C/c1ccccc1)N1CCN(Cc2ccccc2Br)CC1 [Compound C344, (2E)-1-{4-[(2-bromophenyl)methyl]piperazinyl}-3-phenylprop-2-en-1-one]	> 7.00	–
O=C(c1cc2ccccc2[nH]1)N1CCN(CCc2ccccc2)CC1 [Compound C347, indol-2-yl 4-(phenylethyl)piperazinyl ketone]	> 7.00	–
O=C(C#Cc1ccc(F)cc1F)N1CCN(C(=O)c2ccc(Cl)cc2)CC1 [Compound C349, 3-(2,4-difluorophenyl)-1-{4-[(4-chlorophenyl)carbonyl]piperazinyl}prop-2-yn-1-one]	> 7.00	–
O=C(c1ccc2ccccc2n1)N1CCN(C(c2ccccc2)c2ccccc2)CC1 [Compound C351, 4-(diphenylmethyl)piperazinyl 2-quinolyl ketone]	> 7.00	–
O=C(C#Cc1cccc(Cl)c1)N1CCN(Cc2ccc(C(F)(F)F)cc2)CC1 [Compound C353, 3-(3-chlorophenyl)-1-(4-{[4-(trifluoromethyl)phenyl]methyl}piperazinyl)prop-2-yn-1-one]	> 7.00	–
O=C(/C=C/c1ccccc1)N1CCN(Cc2ccc(Cl)cc2)CC1 [Compound C354, (2E)-1-{4-[(4-chlorophenyl)methyl]piperazinyl}-3-phenylprop-2-en-1-one]	–	> 7.00
O=C(/C=C/c1ccc(Br)cc1)N1CCCN(S(=O)(=O)/C=C/c2ccccc2)CC1 [Compound C355, (2E)-1-{4-[((1E)-2-phenylvinyl)sulfonyl](1,4-diazaperhydroepinyl)}-3-(4-bromophenyl)prop-2-en-1-one]	> 7.00	–
O=C(C#Cc1ccc(Cl)cc1)N1CCN(Cc2ccc(C(F)(F)F)cc2)CC1 [Compound C356, 3-(4-chlorophenyl)-1-(4-{[4-(trifluoromethyl)phenyl]methyl}piperazinyl)prop-2-yn-1-one]	> 7.00	–
Cc1cc(F)ccc1OC1CCN(C(=O)c2cc3cc(Cl)ccc3[nH]2)CC1 [Compound C357, 5-chloroindol-2-yl 4-(4-fluoro-2-methylphenoxy)piperidyl ketone]	> 7.00	–
COC(=O)c1cccc(CN2CCN(C(=O)c3cc4cc(Cl)ccc4[nH]3)CC2)c1 [Compound C358, methyl 3-({4-[(5-chloroindol-2-yl)carbonyl]piperazinyl}methyl)benzoate]	> 7.00	–
COC(=O)c1cccc(C(=O)N2CCN(C(=O)c3cc4cc(Cl)ccc4[nH]3)CC2)c1 [Compound C363, methyl 3-({4-[(5-chloroindol-2-yl)carbonyl]piperazinyl}carbonyl)benzoate]	6.30 to 7.00	–
O=C(/C=C/c1ccccc1)N1CCN(Cc2cccc(Cl)c2)CC1 [Compound C365, (2E)-1-{4-[(3-chlorophenyl)methyl]piperazinyl}-3-phenylprop-2-en-1-one]	> 7.00	–
O=C(c1ccc(Cl)cc1)N1CCN(C(=O)c2cc3ccc(F)cc3[nH]2)CC1 [Compound C366, 4-[(4-chlorophenyl)carbonyl]piperazinyl 6-fluoroindol-2-yl ketone]	6.30 to 7.00	–
